Experimental data from paper PMC10174317, “^18F-labeled FGFR1 peptide: a new PET probe for subtype FGFR1 receptor imaging” (Frontiers in Oncology, 2023).
Where a SMILES comes first, the peptide text is derived from it. The star is where a group is joined. NOTA = O=C(O)CN1CCN(CC(=O)O)CCN(CC(=O)*)CC1; AEEA = NCCOCCOCC(=O)O

Assays:
[1] = Micro-PET/CT biodistribution in RT-112-blocked xenografts; format: in vivo, BALB/c nude mice; settings: female, BALB/c nude, mouse, iv, total radioactivity, n=5; for tissue uptake at 0.5 h / tissue uptake at 1 h / tissue uptake at 2 h: RT-112-blocked xenografts (tracer mixed with 200-fold, 1.58 mg, unlabeled peptide), 11.1 MBq tail vein, micro-PET/CT ROI, mean ± SD; for tissue uptake at 0.5 h: 30 min post-injection; for tissue uptake at 1 h: 60 min post-injection
Description: (§1) All animal experiments were carried out in accordance with the Laboratory Animal Ethical Review of Animal Guidelines of China. BALB/c nude mice (sex, female; age, 4 weeks, body weight range, 19-21 g; China) were used for this study. Four cell lines (2*10^7 cells/nude mouse) were subcutaneously injected into the right forelimb to induce solid tumors. All xenograft nude mice were housed in laminar flow cabinets in a specific pathogen-free (SPF) environment and were provided ad libitum access to food and water at the Laboratory Animal Center of the Fourth Hospital of Hebei Medical University (China). The indication for micro-PET/CT imaging was xenografts with a tumor volume of 50-130 mm^3. All animal experiments strictly adhered to the Principles of the Laboratory Animal Ethical Committee of the Fourth Hospital Hebei Medical University (No. 2020016).
(§2) Xenograft mice (n=5) were fastly injected of 200 µl of [^18F]F-FGFR1 (11.1 MBq) through tail vein. For the in vivo blocking study, RT-112 (FGFR1-high expression) tumor-bearing mice (n = 5) were injected with a tracer that was mixed with 200-fold (1.58 mg) unlabeled peptide to saturate the receptors in the tumors. Mice were anesthetized via 3% isoflurane inhalation (RWD Life Science Inc. China) for induction and 2% isoflurane inhalation for maintenance. Micro-PET/CT imaging was performed on a micro-PET/SPECT/CT machine (NOVEL MEDICAL Equipment Ltd. China). Whole-body scans were performed 30, 60 and 120 min after tracer administration. The CT scanning parameters were 80 kV, 0.5 mA, 2000 ms/frames, and 360 frames; the images were reconstructed with a 512*512 matrix and a slice thickness of 0.18 mm. PET images were acquired with a 140*140 matrix and 10 min of total acquisition time. Reconstructed images were processed with the comprehensive image analysis software Pmod v4.201 (PMOD Technologies LLC. Switzerland). The biodistribution of the major organs (brain, heart, lung, liver, kidney, bone and muscle) and tumor were analyzed by manually outlining the regions of interest (ROIs) of the entire organs and tissue at each time point of the micro-PET/CT scan. The radioactivity accumulated in bone and muscle was measured in the limbs without xenograft tumors.

[2] = Micro-PET/CT biodistribution in A549 xenografts; format: in vivo, BALB/c nude mice; settings: female, BALB/c nude, mouse, iv, total radioactivity, 11.1 MBq tail vein, micro-PET/CT ROI, mean ± SD; for tissue uptake at 0.5 h: 30 min post-injection; for tissue uptake at 1 h: 60 min post-injection; for tissue uptake at 2 h: 120 min post-injection
Description: as §1, §2

[3] = test system: RT-112, A549, SNU-16 and Calu-3 cells; assay: Cellular internalization study; format: cell-based, human; settings: acid wash with acetate buffer pH 2.5, four cell lines, P > 0.5, n = 6
Description: Internalization studies were performed according to the planned experiments. Thirty microliters (111 KBq, 1.81-2.53 GBq/μmol) of [^18F]F-FGFR1 was incubated with fresh medium in 24-well plates. The medium was discarded at predetermined time points, and the wells were rinsed twice with 1000 µl of PBS. Then, 1000 µl of acetate buffer (0.2 M acetic acid/0.5 M NaCl, pH 2.5) was added to the wells to remove surface-bound radioactivity. After removing the acetate buffer, the cells were washed twice with 1000 µl of PBS. The acetate buffer and PBS were collected and marked as Cs. The radioactivity of the collected cell lysate was measured and defined as Cin. The internalization rate was assessed in a similar method to the cell uptake rate calculation: Cin/(Cin + Cs).

[4] = In vitro stability in fresh human serum (RP-HPLC); format: in vitro ADME; settings: 37°C, 1, 2, 4 and 6 h
Description: The in vitro and in vivo stability of [^18F]F-FGFR1 was evaluated by RP-HPLC analysis. […] The radiochemical purity of the final compounds was determined by RP-HPLC.

[5] = bone, read-out: Biodistribution, Bone
[6] = brain, read-out: Biodistribution, Brain
[7] = heart, read-out: Biodistribution, Heart
[8] = kidney, read-out: Biodistribution, Kidney
[9] = liver, read-out: Biodistribution, Liver
[10] = lung, read-out: Biodistribution, Lung
[11] = muscle, read-out: Biodistribution, Muscle
[12] = tumor, read-out: Biodistribution, Tumor
[13] = bone, n=5, read-out: Biodistribution, Bone
[14] = brain, n=5, read-out: Biodistribution, Brain
[15] = heart, n=5, read-out: Biodistribution, Heart
[16] = kidney, n=5, read-out: Biodistribution, Kidney
[17] = liver, n=5, read-out: Biodistribution, Liver
[18] = lung, n=5, read-out: Biodistribution, Lung
[19] = muscle, n=5, read-out: Biodistribution, Muscle
[20] = tumor, n=5, read-out: Biodistribution, Tumor

tissue uptake at 0.5 h [1, 5]: 0.31 ± 0.07 %ID/g
tissue uptake at 1 h [1, 5]: 0.37 ± 0.04 %ID/g
tissue uptake at 2 h ([1]; bone, 120 min post-injection, read-out: Biodistribution, Bone): 0.35 ± 0.07 %ID/g
tissue uptake at 0.5 h [1, 6]: 0.61 ± 0.03 %ID/g
tissue uptake at 1 h [1, 6]: 0.61 ± 0.06 %ID/g
tissue uptake at 2 h ([1]; brain, 120 min post-injection, read-out: Biodistribution, Brain): 0.71 ± 0.1 %ID/g
tissue uptake at 0.5 h [1, 7]: 0.74 ± 0.08 %ID/g
tissue uptake at 1 h [1, 7]: 0.7 ± 0.07 %ID/g
tissue uptake at 2 h ([1]; heart, 120 min post-injection, read-out: Biodistribution, Heart): 0.75 ± 0.14 %ID/g
tissue uptake at 0.5 h [1, 8]: 9.35 ± 0.82 %ID/g
tissue uptake at 1 h [1, 8]: 7.31 ± 0.87 %ID/g
tissue uptake at 2 h ([1]; kidney, 120 min post-injection, read-out: Biodistribution, Kidney): 3.37 ± 0.54 %ID/g
tissue uptake at 0.5 h [1, 9]: 0.67 ± 0.16 %ID/g
tissue uptake at 1 h [1, 9]: 0.51 ± 0.09 %ID/g
tissue uptake at 2 h ([1]; liver, 120 min post-injection, read-out: Biodistribution, Liver): 0.5 ± 0.09 %ID/g
tissue uptake at 0.5 h [1, 10]: 0.6 ± 0.05 %ID/g
tissue uptake at 1 h [1, 10]: 0.59 ± 0.04 %ID/g
tissue uptake at 2 h ([1]; lung, 120 min post-injection, read-out: Biodistribution, Lung): 0.51 ± 0.07 %ID/g
tissue uptake at 0.5 h [1, 11]: 0.26 ± 0.03 %ID/g
tissue uptake at 1 h [1, 11]: 0.29 ± 0.03 %ID/g
tissue uptake at 2 h ([1]; muscle, 120 min post-injection, read-out: Biodistribution, Muscle): 0.27 ± 0.02 %ID/g
tissue to tissue ratio at 2 h ([1]; tumor and liver, RT-112-blocked xenografts (200-fold unlabeled peptide), 120 min post-injection, micro-PET/CT, read-out: Tumor to liver ratio (T/L)): 0.85 ± 0.22
tissue uptake at 0.5 h [1, 12]: 0.4 ± 0.02 %ID/g
tissue uptake at 1 h [1, 12]: 0.39 ± 0.03 %ID/g
tissue uptake at 2 h ([1]; tumor, 120 min post-injection, read-out: Biodistribution, Tumor): 0.4 ± 0.02 %ID/g
tissue uptake at 0.5 h [2, 13]: 0.33 ± 0.1 %ID/g
tissue uptake at 1 h [2, 13]: 0.35 ± 0.06 %ID/g
tissue uptake at 2 h [2, 13]: 0.39 ± 0.02 %ID/g
tissue uptake at 0.5 h [2, 14]: 0.61 ± 0.06 %ID/g
tissue uptake at 1 h [2, 14]: 0.72 ± 0.13 %ID/g
tissue uptake at 2 h [2, 14]: 0.64 ± 0.17 %ID/g
tissue uptake at 0.5 h [2, 15]: 0.9 ± 0.09 %ID/g
tissue uptake at 1 h [2, 15]: 0.88 ± 0.04 %ID/g
tissue uptake at 2 h [2, 15]: 0.64 ± 0.07 %ID/g
tissue uptake at 0.5 h [2, 16]: 9.35 ± 1.87 %ID/g
tissue uptake at 1 h [2, 16]: 7.89 ± 1.06 %ID/g
tissue uptake at 2 h [2, 16]: 4.46 ± 0.6 %ID/g
tissue uptake at 0.5 h [2, 17]: 1.53 ± 0.11 %ID/g
tissue uptake at 1 h [2, 17]: 1.52 ± 0.18 %ID/g
tissue uptake at 2 h [2, 17]: 1.58 ± 0.08 %ID/g
tissue uptake at 0.5 h [2, 18]: 0.69 ± 0.12 %ID/g
tissue uptake at 1 h [2, 18]: 0.65 ± 0.04 %ID/g
tissue uptake at 2 h [2, 18]: 0.53 ± 0.07 %ID/g
tissue uptake at 0.5 h [2, 19]: 0.27 ± 0.03 %ID/g
tissue uptake at 1 h [2, 19]: 0.27 ± 0.02 %ID/g
tissue uptake at 2 h [2, 19]: 0.28 ± 0.02 %ID/g
tissue uptake at 0.5 h [2, 20]: 0.87 ± 0.08 %ID/g
tissue uptake at 1 h [2, 20]: 0.64 ± 0.08 %ID/g
tissue uptake at 2 h [2, 20]: 0.53 ± 0.04 %ID/g
Radiochemical purity after incubation (in vitro stability) [4]: exceeded 90%
Structure (SMILES): CC(C)C[C@H](NC(=O)[C@H](CO)NC(=O)[C@H](CCCCN)NC(=O)[C@H](Cc1c[nH]c2ccccc12)NC(=O)[C@H](CCC(=O)O)NC(=O)[C@H](C)NC(=O)[C@H](CCCCN)NC(=O)COCCOCCNC(=O)CN1CCN(CC(=O)O)CCN(CC(=O)O)CC1)C(=O)NCC(=O)N[C@@H](CCC(=O)O)C(=O)N[C@@H](CCC(=O)O)C(=O)N[C@@H](C)C(=O)N[C@@H](Cc1c[nH]c2ccccc12)C(=O)N[C@@H](Cc1c[nH]cn1)C(=O)N[C@@H](CO)C(=O)N[C@@H](CCCCN)C(=O)O [[^18F]F-FGFR1] ({NOTA-AEEA}-KAEWKSLGEEAWHSK-OH; N-terminus and C-terminus assumed)
Internalization fraction Cin/(Cin + Cs) [3]: not significantly different in the four cell lines
